Activity calls are given as the source filed them.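 Rule for the calls: active = half-maximal concentration for changing protein binding to DNA, from the fitted dose curve, below 10 micromolar; inactive = the rest.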 A value given as a limit tells only on which side of the number the result lay.

The experiment addresses Nuclear receptor subfamily 1 group D member 1 (Homo sapiens) (UniProt P20393). Nature of the experiment: modulators of Rev-erb alpha DNA binding, dose response, biochemical, FITC-DNA, fluorescence polarization (AID 1259321). (Polarisation of emitted light reports the rotation of a fluorescent probe.)

Nuclear receptor subfamily 1 group D member 1 (Homo sapiens), sequence (P20393 whole entry, looked up): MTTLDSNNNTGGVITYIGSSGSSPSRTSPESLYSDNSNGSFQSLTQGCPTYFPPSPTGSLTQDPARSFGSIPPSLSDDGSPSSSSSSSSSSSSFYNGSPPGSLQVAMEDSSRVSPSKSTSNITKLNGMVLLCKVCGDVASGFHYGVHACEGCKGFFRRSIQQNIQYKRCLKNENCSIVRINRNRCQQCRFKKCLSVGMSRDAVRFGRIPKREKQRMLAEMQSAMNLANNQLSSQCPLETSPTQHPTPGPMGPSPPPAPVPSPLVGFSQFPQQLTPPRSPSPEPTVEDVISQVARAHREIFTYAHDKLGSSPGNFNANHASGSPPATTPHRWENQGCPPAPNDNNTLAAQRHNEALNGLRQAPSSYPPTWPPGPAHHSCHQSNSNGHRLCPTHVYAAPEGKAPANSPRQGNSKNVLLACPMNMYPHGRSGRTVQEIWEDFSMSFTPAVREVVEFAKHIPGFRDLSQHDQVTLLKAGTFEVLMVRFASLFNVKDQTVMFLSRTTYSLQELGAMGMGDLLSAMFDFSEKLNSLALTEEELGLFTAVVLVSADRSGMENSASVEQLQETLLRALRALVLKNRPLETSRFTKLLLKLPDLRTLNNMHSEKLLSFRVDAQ

One may read the IC50 as the concentration at which inhibition is half-maximal. Turning to `CCOC(=O)c1sc(NC(=O)c2ccc(S(=O)(=O)N(CC)CC)cc2)nc1C`, the IC50 result is “inactive”.

As for `O=C(O)c1ccccc1C(c1ccccc1)c1ccccc1O` (stereo not given), the IC50 result was “inactive”.

As to `NS(=O)(=O)c1ccc(CCNc2nc3c(-c4cccc(F)c4)nnn3c3ccccc23)cc1`, the IC50 was > 40 µM (inactive).

Regarding `COc1ccccc1-c1ccc2c(c1)C(C)(Cc1cccc(F)c1)C(=O)N2` (stereo not given), the IC50 was 7.15 µM.

Turning to `Cc1ccc(Cl)cc1N1CCN(S(=O)(=O)c2ccc(-c3ccc(=O)[nH]n3)o2)CC1`, the IC50 result was “inactive”.

Turning to `CCCCCNC(=O)c1c[nH]c2ccc(S(=O)(=O)N3CCC4(CC3)OCCO4)cc2c1=O`, the IC50 entry was “inactive”.

Consider `CCc1cc2cc3c(cc2nc1SCC(=O)Nc1cc(C)on1)OCO3`, for which the IC50 was 3.31 µM.

For `CCCCN1C(=O)/C(=C/C=C2\Oc3ccccc3N2CC)SC1=S`, the IC50 was 4.41 µM.

Regarding `COC(=O)c1ccc(C(=O)OC)c(NC(=O)N2c3ccccc3Sc3ccccc32)c1`, the IC50 was > 40 µM (inactive).

`COc1ccc(-c2nc(N)ncc2Oc2ccccc2Br)c(O)c1`: the IC50 entry is “inactive”.

`CCN1/C(=C/c2ccc3cc(C)ccc3[n+]2CC)Sc2ccccc21`: the IC50 was > 40 µM (inactive).

For the molecule `CC(=O)c1cccc(NC(=O)c2cccc(NC(=O)c3ccco3)c2)c1`, the half-maximal inhibitory concentration (IC50) was 1.57 µM.

Turning to `CC(=O)Nc1ccc(O)c(-c2nc3ccccc3s2)c1`, the IC50 result is “inactive”.

`O=C(Nc1ccccc1)c1cc2c(=O)c3ccccc3oc2nc1C(F)(F)F`: the IC50 was 6.94 µM.

For the molecule `O=C(O)CSc1c2ccccc2cc2ccccc12`, the IC50 is > 40 µM (inactive).

As to `CCOC(=O)CSc1nc2cc3c(cc2cc1C#N)OCCO3`, the IC50 was > 40 µM (inactive).

With `Brc1ccc(-c2nn3c(-c4ccccc4)nnc3s2)cc1`, the IC50 is > 40 µM (inactive).

For `Cc1ccc(-n2c(SCC(=O)Nc3cccc(S(=O)(=O)NC4=NCCCCC4)c3)nc3ccccc3c2=O)cc1`, the IC50 entry was “inactive”.

For the molecule `Cc1nc(-c2ccccc2)nc2[nH]c(-c3ccccc3)cc(=O)c12`, the IC50 result is “inactive”.

As to `CC(=O)Nc1ccc(N2C(=O)c3cccc4c(O)ccc(c34)C2=O)cc1`, the IC50 is 0.328 µM.

In the case of `CCCCCC[n+]1ccccc1/C=C/c1ccc(N(C)C)cc1`, the half-maximal inhibitory concentration (IC50) was 7.24 µM.

With `COCCCn1c(C(=O)NCCC2=CCCCC2)cc2c(=O)n3cccc(C)c3nc21`, the IC50 was 7.78 µM.

In the case of `N#Cc1c(N)nc2c3c(sc(=N)c2c1N)NC(=O)CC3c1ccccc1` (stereo not given), the IC50 was > 40 µM (inactive).

Turning to `Nc1cccc(N2C(=O)c3cccc4c(N)ccc(c34)C2=O)c1`, the IC50 entry was “inactive”.

For the molecule `CCN(CC)c1ccc(/C=C(/C#N)c2nc3ccccc3[nH]2)c(OC(C)C)c1`, the concentration for half-maximal inhibition (IC50) is 3.45 µM.

With `COCCn1c(=NC(=O)c2ccc3c(c2)OCCO3)sc2cc(S(N)(=O)=O)ccc21`, the concentration for half-maximal inhibition (IC50) is 4.94 µM.

Turning to `Cn1c(=O)c(NCCc2ccccc2)c2c3c(cccc31)C(=O)c1ccccc1-2`, the IC50 result is “inactive”.

Consider `Cc1ccc2cc(C#N)c(SCC(=O)N3CCCc4ccccc43)nc2c1`, for which the IC50 was 6.5 µM.

Regarding `CCOC(=O)c1c(-c2ccccc2)csc1NC(=O)/C(C#N)=C/c1ccc(O)c(OC)c1`, the IC50 was 7.23 µM.

As to `CCOC(=O)c1sc(NC(=S)NC(=O)C2CCCC2)cc1C`, the IC50 was 1.8 µM.

As to `O=C(CCCC(=O)OCC(=O)c1cccs1)Nc1ccc(Oc2ccccc2)cc1`, the IC50 result is “inactive”.

As to `CCOC(=O)c1ccc2nc(Nc3nc4ccc(F)cc4s3)sc2c1`, the IC50 is 7.02 µM.

For the molecule `Clc1nc2c(-c3ccccc3)nnn2c2ccccc12`, the IC50 is > 40 µM (inactive).

Turning to `O=C(NCc1ccccc1)C(c1cccc2ccccc12)n1c(=O)c(-c2ccccc2)nc2ccccc21` (stereo not given), the IC50 was 1.61 µM.

Turning to `Cc1cc(/C=C(/C#N)C(=O)Nc2ccc(Cl)cc2)c(C)n1-c1cccnc1`, the half-inhibitory concentration (IC50) is 2.66 µM.

Regarding `COc1cc2[nH]c(=S)nc(NCCc3ccc(C)cc3)c2cc1OC`, the IC50 is > 40 µM (inactive).

In the case of `Cc1ccc2[nH]cc(/C=C/c3cc[n+](C)cc3)c2c1`, the IC50 was > 40 µM (inactive).

As to `Cc1cc2nc3c(=O)n(CCc4ccccc4)c(=O)[nH]c3nc2cc1N`, the IC50 was > 40 µM (inactive).

Take `CN(C)c1ccc(N=Nc2ccccc2C(=O)OCC(=O)N2CCCC2)cc1`: the IC50 was 0.527 µM.

On to `CCCCOc1ccc(N(CC(=O)NC2CCCCC2)C(=O)c2snc(C(N)=O)c2N)cc1`, for which the IC50 was > 40 µM (inactive).

As to `CCOc1ccc(-n2c([S-])c(C(=O)Nc3ccc(S(=O)(=O)N4CCOCC4)cc3)[n+]3cc(C(N)=O)ccc23)cc1`, the IC50 entry was “inactive”.

As for `CC(C)(C)c1ccc(C(=O)c2c[nH]c(C(=O)NCc3cccs3)c2)cc1`, the IC50 is 3.88 µM.

As to `Cc1cc(C)c2nc(SCC(=O)N3CC(=O)Nc4ccccc43)c(C#N)cc2c1`, the IC50 was 7.22 µM.

As to `CCN(CC)C(=O)CSc1nc2cc3c(cc2c(=O)n1Cc1ccc(OC)cc1)OCO3`, the IC50 was > 40 µM (inactive).

With `O=C(COc1ccc2ccccc2c1Br)NNC(=O)Nc1ccccc1`, the IC50 is 0.778 µM.

In the case of `COc1cccc(-c2nc(CS(=O)(=O)CC(=O)NCc3ccc(Cl)cc3)c(C)o2)c1`, the IC50 is > 40 µM (inactive).

Turning to `CCN(CC)C(=O)c1ccc(/C=C/c2c[nH]c3ccccc23)[n+](C)c1`, the IC50 entry is “inactive”.

`COC(=O)c1ccc(Cn2ccc3ccc(-c4ccc5ccn(C(=O)c6ccccc6C)c5c4)cc32)cc1`: the IC50 is 9.87 µM.

In the case of `O=[N+]([O-])c1ccc(NCc2ccccc2)c2nonc12`, the half-inhibitory concentration (IC50) is 1.2 µM.

Take `Cc1nc(N2CCC(C)CC2)c2c(C)c(C(=O)Nc3ccc(C)c(F)c3)sc2n1`: the IC50 is > 40 µM (inactive).

For `Cc1cccc(NC(=O)C2CCCN(S(=O)(=O)c3cccc4nsnc34)C2)c1` (stereo not given), the IC50 was 2.17 µM.

Take `Cc1ccc(C(=O)Nc2cccc(C(F)(F)F)c2)cc1NC(=O)c1nccn1C`: the IC50 was 6.88 µM.

On to `COC(=O)c1ccc(NC(=O)c2cn(-c3ccccc3)nc2-c2ccncc2)cc1`, for which the IC50 was > 40 µM (inactive).

On to `COc1ccc(CCn2c(O)c(C=Nc3ccc(F)cc3)c(=O)[nH]c2=O)cc1OC`, for which the IC50 entry is “inactive”.

`COc1ccc2[nH]c(C(=O)Nc3ccccc3Cl)cc2c1`: the IC50 was > 40 µM (inactive).

Consider `CCCSc1nc(SCC(=O)NCc2ccccc2)c2c3c(sc2n1)COC(C)(CC)C3` (stereo not given), for which the IC50 was > 40 µM (inactive).

In the case of `CCCCCCCn1c(=O)c(C(=O)Nc2cnccn2)c(O)c2ccccc21`, the IC50 result is “inactive”.

On to `Cc1ccccc1C(=O)N=c1ccn(-c2nc3ccccc3nc2NS(=O)(=O)c2ccc(F)cc2)cc1`, for which the IC50 was 5.69 µM.

On to `CCc1cc2cc3c(cc2nc1SCC(=O)Nc1nnc(C)s1)OCCO3`, for which the IC50 was 5.32 µM.

With `N#Cc1c(N)nc(SCC(=O)NCc2ccc3c(c2)OCO3)c(C#N)c1-c1cccs1`, the IC50 is 2.41 µM.

For the molecule `COc1ccccc1NC(=O)COC(=O)c1ccc2c(c1)OCCO2`, the IC50 is 1.01 µM.

As to `COc1cc(OC)c(N(C)S(=O)(=O)c2cccc(C(=O)OCc3c(C)noc3C)c2)cc1Cl`, the IC50 is 5.12 µM.

As to `CCOC(Cn1c(SCc2cc(C(C)=O)ccc2OC)nc2ccccc2c1=O)OCC`, the IC50 is 9.39 µM.

In the case of `O=C(CSc1nc2ccccc2c(=O)n1-c1ccc(F)cc1)Nc1ccc(Cl)c(S(=O)(=O)N2CCOCC2)c1`, the IC50 was 2.38 µM.

Take `Cc1cc(C)c2nc(SCC(=O)Nc3ccccc3N3CCOCC3)c(C#N)cc2c1`: the IC50 is 6.99 µM.

Turning to `CN1C(=O)c2cccc3c(N)ccc(c23)C1=O`, the IC50 entry is “inactive”.

Take `Cc1coc2cc3oc(=O)c(Cc4ccccc4)c(C)c3cc12`: the IC50 entry is “inactive”.

For `COc1ccc2c(COC(=O)c3n[nH]c4ccccc34)cc(=O)oc2c1`, the IC50 is > 40 µM (inactive).

Turning to `COc1ccc(Cc2nc3ccccc3n2CC(=O)N/N=C/c2ccc(C)cc2O)cc1OC`, the IC50 is 5.85 µM.

In the case of `COc1ccc(-n2ncc3c(N4CCc5ccccc54)ncnc32)cc1`, the IC50 was 8.26 µM.

As for `CN(C)c1nc(-c2cccnc2)nc(-c2ccccc2)c1C#N`, the IC50 entry is “inactive”.

As to `O=C(NCc1cc(C(F)(F)F)ccc1Cl)c1cccc2c1C(=O)c1ccc(Cl)cc1S2(=O)=O`, the IC50 is 4.22 µM.

`CCOCCCn1c(=S)[nH]c2cc(C(=O)NCCc3ccccc3)ccc2c1=O`: the half-maximal inhibitory concentration (IC50) was 3.56 µM.

Consider `CC(=O)Nc1ccc(Nc2c3c4c(cccc4n(C)c2=O)C(=O)c2ccccc2-3)cc1`, for which the IC50 is 5.25 µM.

Take `Cc1ccc(CNC(=O)c2cc3c(=O)n(C)c4ccccc4c3n2C)cc1`: the IC50 entry was “inactive”.

For `Cc1cc(NC(=O)CSc2nc3c(C)ccc(C)c3cc2C#N)no1`, the IC50 was 3.19 µM.

Regarding `COc1ccc(C(=O)COC(=O)c2cc(=O)[nH]c3ccccc23)c(OC)c1`, the IC50 entry is “inactive”.

Turning to `COc1cccc(C(=O)CSc2nnc(-c3cc(OC)cc(OC)c3)o2)c1`, the IC50 result was “inactive”.

Regarding `COc1ccc(C(=O)Nc2nnc(Cc3cccs3)s2)cc1OC`, the IC50 result was “inactive”.

For `CC1(C)Cc2nc3sc4c(SCC(=O)NC(c5ccccc5)c5ccccc5)ncnc4c3cc2CO1`, the IC50 was > 40 µM (inactive).

For `O=C(Cc1sc(-c2ccccc2)nc1-c1ccccc1)Nc1ccc(Cl)cc1`, the IC50 is 3.2 µM.

As to `O=C(OCCN1C(=O)c2cccc3c(N4CCOCC4)ccc(c23)C1=O)c1ccc(Cl)cc1Cl`, the IC50 was > 40 µM (inactive).

For the molecule `CCOc1ccc(S(=O)(=O)Nc2nc3ccccc3nc2-n2ccc(=NC(=O)c3ccccc3C)cc2)cc1`, the IC50 was > 40 µM (inactive).

In the case of `CC(C)(C)c1nc(SCC(=O)Nc2ccc3c(c2)OCCO3)c2ccccc2n1`, the IC50 was 0.88 µM.

For `COc1ccc2c(c1)c(/C=C/c1cc[n+](C)cc1)cn2C`, the IC50 result was “inactive”.

With `Cc1cc(C)c(NC(=O)COc2ccccc2C(=O)Nc2ccc3c(c2)oc2ccccc23)c(C)c1`, the IC50 was > 40 µM (inactive).

On to `Cc1ccc2[nH]c(C)c(/C=C/c3cc[n+](C)cc3)c2c1`, for which the IC50 is 8.6 µM.

For `COc1ccc(Br)cc1-c1nc2c(c(=O)[nH]c(=O)n2Cc2ccccc2)n1C`, the IC50 entry is “inactive”.

As to `O=C(COC(=O)c1cccnc1SCC(=O)NCc1ccccc1)NCc1ccccc1`, the IC50 is 4.11 µM.

With `Fc1cccc2sc(Nc3nc4c(F)cccc4s3)nc12`, the IC50 is 4.6 µM.
